Test results: US20120142621A1 (priority 2010, published 2012)

Columns and labels:
[1] = Dosage finding after CLP, tail vein IV; type: in vivo; conditions: 24 mg/kg IV in 50% ethanol-PBS; possibly due to ethanol concentration
Method: Dosage To determine the optimum dose that can be administered to the rats, 3 different doses of Glyco 23, 6 mg/kg, 12 mg/kg and 24 mg/kg of rat body weight (in 50% ethanol-PBS) was administered using tail vein IV to 9 rats following the Cecal Ligation and Puncture (CLP). Control rats (n=3) were injected with 0.5 ml of PBS. […] Rats that received […] and 12 mg/kg doses survived after 24 hours. Blood was obtained before they were sacrificed the next day.

[2] = tested on: IL-1β; test: RNase Protection Assay, splenocyte mRNA of CLP-septic rats: IL-1β; type: in vivo, rat; conditions: 5 mg/kg; splenocytes at 6 hrs; percent control (CLP+vehicle) +/- SEM; P<0.05
Description: (§1) Data are expressed as percent control (CLP+vehicle)+/−SEM. Treatment groups were significant (p<0.05) compared with control using student's T test. CLP=cecal ligation and puncture; SL=sophorolipid

[3] = tested on: standard bacterial isolates; test: Antibiotic activity, broth microdilution method; type: cell-based; conditions: clinically relevant concentrations
[4] = tested on: septic peritonitis via CLP; test: Survival, WBC and blood culture at 3 hours and 24 hours post insult (CLP); type: in vivo, rat; conditions: 5 mg/kg IV at end of surgery, n=6/group; for Survival 24 Hs. post insult: % printed only over the 3 hours column
Method: Survival at 3 hours and 24 hours post insult. […] Doses were given at the end of the surgery, and animals were followed for 24 hours (Table 1)

[5] = tested on: TGF-β1; test: RNase Protection Assay, splenocyte mRNA of CLP-septic rats: TGF-β1; type: in vivo, rat; conditions: splenocytes at 6 hrs; percent control (CLP+vehicle) +/- SEM; P<0.05
Description: as §1

[6] = tested on: LPS-induced immunologically relevant genes in mouse macrophages; test: Microarray analysis of macrophages cultured with LPS +/- Glyco 23; type: cell-based; conditions: Affymetrix Murine Genome Array U74Av2; LPS maximum set as 100%
Method: The maximum level of each gene expression attained in the presence of LPS was set as 100%. […] The analysis was performed using the Affymetrix GeneChip® Murine Genome Array U74Av2 probe array.

[7] = tested on: IL-1; test: Cytokine responses in vitro: IL-1; type: cell-based; conditions: compared with the natural mixture responses, FIG. 5
[8] = tested on: galactosamine-sensitized LPS endotoxic shock; test: Galactosamine-sensitized LPS endotoxic shock mortality; type: in vivo, mouse
Description: Therefore, treatment after 2 hr can be compared to treatment after 24 hrs or later in conventional models.

[9] = tested on: septic peritonitis via CLP; test: CLP model of intra-abdominal sepsis: survival / mortality; type: in vivo, rat; conditions: same CLP model, FIG. 4
Method: Effect of Glyco 23 on mortality in intra-abdominal sepsis. […] The CLP model was chosen for its reproducible mortality rates and its ability to mimic fecal peritonitis.
This dose is well below the LD50 (6-7 gm/kg) of naturally occurring sophorolipids in rodents.^(40,41). Doses were given at the end of the surgery, and animals were followed for 36 hours. Kaplan Meier statistics were performed on survival.

[10] = tested on: IL-8; test: Cytokine responses in vitro: IL-8; type: cell-based; conditions: compared with the natural mixture responses, FIG. 5
[11] = biological target: T1, TLR4 (Mus musculus, UniProt Q9QUK6); test: Macrophage surface expression by antibody staining: TLR4; type: cell-based; conditions: RAW264.7 macrophages, 10 μg/ml, 30 min
T1 construct: endogenous in cells; host or cells: RAW264.7 macrophages
T1 sequence (Q9QUK6 26-835): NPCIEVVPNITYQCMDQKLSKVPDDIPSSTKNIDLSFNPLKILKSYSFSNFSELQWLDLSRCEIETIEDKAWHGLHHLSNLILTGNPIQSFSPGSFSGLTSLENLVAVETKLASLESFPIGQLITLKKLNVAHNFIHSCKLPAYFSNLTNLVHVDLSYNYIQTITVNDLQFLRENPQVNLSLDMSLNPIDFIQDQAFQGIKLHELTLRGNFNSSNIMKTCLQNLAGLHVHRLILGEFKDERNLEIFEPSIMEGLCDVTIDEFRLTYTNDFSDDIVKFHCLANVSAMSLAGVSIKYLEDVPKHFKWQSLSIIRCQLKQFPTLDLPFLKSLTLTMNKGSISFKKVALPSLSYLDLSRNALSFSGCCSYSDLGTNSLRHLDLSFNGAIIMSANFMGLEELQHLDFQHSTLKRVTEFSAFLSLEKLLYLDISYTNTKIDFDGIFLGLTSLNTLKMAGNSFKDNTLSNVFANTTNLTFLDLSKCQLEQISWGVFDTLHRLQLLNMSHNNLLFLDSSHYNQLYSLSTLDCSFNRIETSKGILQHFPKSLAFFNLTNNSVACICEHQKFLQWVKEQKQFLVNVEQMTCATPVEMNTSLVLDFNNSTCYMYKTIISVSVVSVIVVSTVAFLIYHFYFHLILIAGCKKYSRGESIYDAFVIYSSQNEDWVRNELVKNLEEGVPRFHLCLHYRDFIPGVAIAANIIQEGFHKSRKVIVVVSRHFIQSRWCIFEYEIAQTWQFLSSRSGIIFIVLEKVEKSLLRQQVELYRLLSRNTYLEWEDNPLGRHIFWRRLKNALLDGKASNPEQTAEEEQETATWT
Method: (§2) Effects of Glyco 23 on TLR pathway: We studied expression of macrophage CD14 and TLR4 in an in vitro model system using cultured macrophages to relate Glyco 23 mechanism of action to events upstream of cytokine gene expression. […] This observation is significant in light of very recent studies showing that CD14 inhibition using anti-CD14 antibodies in an in vivo pig model of gram-negative sepsis and endotoxemia.^(42)
(§3) Macrophages (RAW264.7) were incubated in the absence or presence of sophorolipids (SL, 10 μg/ml, 30 min, room temperature), washed with phosphate-buffered saline (PBS), and anti-CD 14 or anti-TLR4 antibodies (Santa Cruz Biotechnology, 10 μg/ml, 30 min, room temperature). The cells were then washed with PBS and staining was performed using ABC staining system (Santa Cruz Biotechnology), according to manufacturer's instructions. The cells were then fixed with 1% formaldehyde and examined microscopically. A total of 200 cells were scored in triplicate for each determination, and results expressed as % of total cells counted.

[12] = biological target: T2, CD14 (Mus musculus, UniProt P10810); test: Macrophage surface expression by antibody staining: CD14; type: cell-based; conditions: RAW264.7 macrophages, 10 μg/ml, 30 min
T2 construct: endogenous in cells; host or cells: RAW264.7 macrophages
T2 sequence (P10810 16-336): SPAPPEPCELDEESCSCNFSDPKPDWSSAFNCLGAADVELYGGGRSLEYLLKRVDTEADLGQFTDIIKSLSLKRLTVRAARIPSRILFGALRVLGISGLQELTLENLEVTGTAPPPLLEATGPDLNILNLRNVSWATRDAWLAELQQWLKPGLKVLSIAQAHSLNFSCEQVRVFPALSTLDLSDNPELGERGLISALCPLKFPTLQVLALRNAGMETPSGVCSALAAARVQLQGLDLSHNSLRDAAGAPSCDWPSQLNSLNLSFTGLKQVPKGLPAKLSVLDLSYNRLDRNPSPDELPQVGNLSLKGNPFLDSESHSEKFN
Method: as §2, §3

[13] = tested on: Interleukin-6 (IL-6); test: Serum IL-6 by ELISA 3 hrs after CLP; type: in vivo, rat; conditions: natural mixture versus free acid form, FIG. 10
Method: Serum samples were obtained from rats (N=5 animals/group) 3 hrs. after (CLP) to establish polymicrobial sepsis, and intravenous injection of saline (control), sophorolipids-natural mixture (SL) or Glyco 23. Serum concentrations of Interleukin-6 (IL-6) were determined using commercial ELISA tests according to manufacturer's instructions. Results were evaluated for statistical significance using ANOVA.

| Compound | time to death of all rats [1] | reduction in IL-1β expression (mRNA) [2] | antibiotic activity [3] | Survival % 3 hours post insult [4] | Survival 24 Hs. post insult [4] | increased expression of TGF-β1 (mRNA) [5] | expression of genes upregulated more than 5 fold by LPS [6] | IL-1 cytokine response suppression [7] | Mortality (%) ([8]; LPS at 0 hs, Glyco at 0 hs, n = 9) | Mortality (%) ([8]; LPS at 0 hs, Glyco at 1.5 hs, n = 10) | Mortality (%) ([8]; LPS at 1.5 hs, Glyco at 0 hs, n = 10) | decrease of endotoxin mortality ([8]; administered 2 hr after insult, versus positive control mice) | Mortality rate reduced compared to vehicle [9] | IL-8 cytokine response suppression [10] | surface expression of TLR4 [11] | surface expression of CD14 [12] | difference between the inhibitory effects on serum IL-6 [13] |
| --- | --- | --- | --- | --- | --- | --- | --- | --- | --- | --- | --- | --- | --- | --- | --- | --- | --- |
| CCOC(=O)CCCCCCC/C=C\CCCCCCC(C)OC1O[C@H](CO)[C@@H](O)[C@H](O)[C@H]1OC1O[C@H](CO)[C@@H](O)[C@H](O)[C@H]1O (relative stereo) [Glyco 23, Ethyl-17-L-[(2′-O-D-glucopyranosyl-D-glucopyranosyl)-oxy]-cis-9-octadecenoate] | ≤ 2 h | 42.5%±4.7% | no significant antibiotic activity | 100% | 100% | 11.7±1.5% | suppressed | decreased | 89% | 30% | 80% | 56% | 37% | decreased | interferes with surface expression | interferes with surface expression | – |
| CC(CCCCCC/C=C\CCCCCCCC(=O)O)O[C@@H]1O[C@H](CO)[C@@H](O)[C@H](O)[C@H]1O[C@@H]1O[C@H](CO)[C@@H](O)[C@H](O)[C@H]1O (relative stereo) [Sohorolipid Free Acid derivative, 17-L-[(2′-O-b-D-glucopyranosyl-b-D-glucopyranosyl)-oxy]-cis-9-octadecenoatede-acetylated free acid] | – | – | – | 100% | 90% | – | – | – | – | – | – | – | – | – | – | – | No significant difference |
| Lipid A [reference compound] | – | – | – | 50% | 32% | – | – | – | – | – | – | – | – | – | – | – | – |
